The values that follow come from patent US20250206701A1.

Data set [1] in a line: In vitro metabolic stability / psilocin release assays (liver, intestinal, serum fractions, buffer).
A short description of data set [2]: Mouse PK study: plasma parent compound and psilocin metabolite after dosing of the labelled compound. To be noted: for Plasma concentration of E(VI) / AUC0-tlast/Dose of E(VI) / Plasma concentration of psilocybin: 1 mg/kg i.v.
The target in a further data set is T1, 5-HT2A receptor (Mus musculus, UniProt P35363).
T1 construct: tissue Charles River; host or cells: living C57BL/6-Elite mice (brain, in vivo)
Kind of data set: Drug-induced Head Twitch Response (HTR) in mice. It is filed as in vivo, C57BL/6-Elite mice. To be noted: 1 mg/kg i.p.; for Head Twitch Response (HTR): 15-to-30-minute window post-drug, relative to vehicle.

The target of another data set is T2, 5-HT1A receptor (Homo sapiens, UniProt P08908).
T2 construct: host or cells: CHO-K1 (co-expressing Ga15)
T2 sequence (P08908 1-422): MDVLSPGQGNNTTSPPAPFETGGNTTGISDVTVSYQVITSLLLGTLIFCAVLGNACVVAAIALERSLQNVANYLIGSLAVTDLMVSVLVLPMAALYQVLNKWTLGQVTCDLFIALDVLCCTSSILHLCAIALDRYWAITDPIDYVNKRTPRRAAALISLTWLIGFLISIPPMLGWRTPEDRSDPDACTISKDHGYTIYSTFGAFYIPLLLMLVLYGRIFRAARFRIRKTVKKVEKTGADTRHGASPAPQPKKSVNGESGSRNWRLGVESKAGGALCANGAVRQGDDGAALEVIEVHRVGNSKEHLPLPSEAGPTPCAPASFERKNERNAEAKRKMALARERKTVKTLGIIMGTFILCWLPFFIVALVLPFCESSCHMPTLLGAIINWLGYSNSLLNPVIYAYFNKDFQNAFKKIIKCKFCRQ
Kind of data set: cAMP-Glo assay of 5-HT1A receptor modulation in CHO-K1/5-HT1A/Ga15 cells. It is filed as cell-based. The settings on record: +5-HT1A vs −5-HT1A cells, 4 mM forskolin, increasing ligand concentrations.

The next data set deals with T3, MAO-A (Homo sapiens, UniProt P21397).
T3 construct: purchased Sigma
T3 sequence (P21397 1-527): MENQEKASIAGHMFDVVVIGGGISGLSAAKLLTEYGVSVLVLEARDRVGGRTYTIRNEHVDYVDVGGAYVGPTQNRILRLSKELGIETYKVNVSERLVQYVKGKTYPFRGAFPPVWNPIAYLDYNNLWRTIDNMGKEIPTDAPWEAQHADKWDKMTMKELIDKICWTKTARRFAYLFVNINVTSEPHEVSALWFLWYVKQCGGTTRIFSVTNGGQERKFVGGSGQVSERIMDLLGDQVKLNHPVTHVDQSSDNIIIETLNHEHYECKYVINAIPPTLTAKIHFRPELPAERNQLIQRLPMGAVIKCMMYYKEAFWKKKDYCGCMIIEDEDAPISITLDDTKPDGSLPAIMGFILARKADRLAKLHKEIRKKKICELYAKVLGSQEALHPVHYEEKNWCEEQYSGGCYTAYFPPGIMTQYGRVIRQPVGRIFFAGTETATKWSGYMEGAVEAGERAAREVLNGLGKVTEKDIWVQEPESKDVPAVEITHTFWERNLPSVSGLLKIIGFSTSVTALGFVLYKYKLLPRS
Kind of data set: SAFETYscan MAO-A enzyme assay. It is filed as biochemical.

The target in another data set is AVPR1A (Homo sapiens, UniProt P37288). Kind of data set: SAFETYscan calcium secondary messenger assay, AVPR1A. The data set is classed as cell-based.
The mark [3] stands for this setting: 3 mg/kg oral, 24 h, individual mice, BLQ = below 0.2 ng/mL.
[4] abbreviates: oral doses, any dose / timepoint.

Structures are written as SMILES. Where “and” joins values, the source holds several entries; their conditions need not be identical. Equal entries are not always repeated. Entries after “also recorded” stand apart in the source; their conditions may differ.

T1 sequence (P35363 whole entry): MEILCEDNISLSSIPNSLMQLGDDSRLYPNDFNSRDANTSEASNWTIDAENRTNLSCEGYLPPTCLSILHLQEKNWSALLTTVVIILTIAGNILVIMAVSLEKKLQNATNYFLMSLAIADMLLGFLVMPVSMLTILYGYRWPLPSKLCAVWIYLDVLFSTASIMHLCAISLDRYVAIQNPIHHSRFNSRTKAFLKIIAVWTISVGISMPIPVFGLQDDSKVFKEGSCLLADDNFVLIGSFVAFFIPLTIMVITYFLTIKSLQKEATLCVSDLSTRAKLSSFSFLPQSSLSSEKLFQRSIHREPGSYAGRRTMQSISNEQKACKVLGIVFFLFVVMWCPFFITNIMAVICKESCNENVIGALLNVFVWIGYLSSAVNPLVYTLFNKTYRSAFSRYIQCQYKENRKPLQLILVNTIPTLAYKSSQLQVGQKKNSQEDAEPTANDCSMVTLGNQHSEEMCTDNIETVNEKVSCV
Chain of AVPR1A (P37288 whole entry): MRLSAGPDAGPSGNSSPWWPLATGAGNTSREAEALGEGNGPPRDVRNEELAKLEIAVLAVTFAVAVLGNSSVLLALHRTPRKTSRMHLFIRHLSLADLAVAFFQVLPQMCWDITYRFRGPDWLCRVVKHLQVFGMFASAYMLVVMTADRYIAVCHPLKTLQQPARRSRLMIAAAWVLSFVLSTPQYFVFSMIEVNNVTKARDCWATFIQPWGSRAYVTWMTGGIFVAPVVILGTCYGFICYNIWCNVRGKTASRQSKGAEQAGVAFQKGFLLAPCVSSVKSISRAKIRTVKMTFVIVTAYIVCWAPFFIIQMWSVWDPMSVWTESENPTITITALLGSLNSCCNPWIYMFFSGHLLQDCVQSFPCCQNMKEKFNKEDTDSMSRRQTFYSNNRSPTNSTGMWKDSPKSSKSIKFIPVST

In the case of `CN(C)CCc1c[nH]c2cccc(OC(=O)OCc3ccccc3)c12` [B(II)], the dissociation to psilocin entry in data set [1] (HLM, HLS9, HIM, HIS9, AB serum, buffer control (any conditions)) is “did not readily dissociate to psilocin under any conditions”. The “detection of parent compound in plasma after oral administration” value (“detection of parent compound in plasma” for short) in data set [2] (1 mg/kg oral) is listed as “neither B(II) nor E(VI) were detected in plasma”. Further, the “Plasma concentration of psilocin” value in data set [2] (1 mg/kg oral, 0.25 h, mean ± SD) was determined as 19.7 ± 5.50 ng/mL; in data set [2] (1 mg/kg oral, 0.5 h, mean ± SD) it was 11.9 ± 2.03 ng/mL; in data set [2] (1 mg/kg oral, 1 h, mean ± SD) it was 4.63 ± 0.788 ng/mL; in data set [2] (1 mg/kg oral, 2 h, mean ± SD), 2.20 ± 0.850 ng/mL; in data set [2] (1 mg/kg oral, 4 h, mean ± SD) it was 2.05 ± 0.359 ng/mL; in data set [2] (1 mg/kg oral, 6 h, mean ± SD) it was 0.739 ± 0.288 ng/mL. The “Plasma concentration of psilocin” value in data set [2] (1 mg/kg oral, 8 h, mean ± SD) is recorded as 0.453 ± 0.0460 ng/mL; in data set [2] (3 mg/kg oral, 0.25 h, mean ± SD) it was 55.6 ± 8.67 ng/mL; in data set [2] (3 mg/kg oral, 0.5 h, mean ± SD), 32.3 ± 4.98 ng/mL; in data set [2] (3 mg/kg oral, 1 h, mean ± SD), 9.29 ± 3.05 ng/mL; in data set [2] (3 mg/kg oral, 2 h, mean ± SD), 7.67 ± 0.921 ng/mL; in data set [2] (3 mg/kg oral, 4 h, mean ± SD), 6.76 ± 2.13 ng/mL. The “Plasma concentration of psilocin” value is 2.41 ± 0.845 ng/mL in data set [2] (3 mg/kg oral, 6 h, mean ± SD); 0.722 ± 0.368 ng/mL in data set [2] (3 mg/kg oral, 8 h, mean ± SD); 306 ± 34.6 ng/mL in data set [2] (10 mg/kg oral, 0.25 h, mean ± SD); 125 ± 16.3 ng/mL in data set [2] (10 mg/kg oral, 0.5 h, mean ± SD); 49.6 ± 10.5 ng/mL in data set [2] (10 mg/kg oral, 1 h, mean ± SD); 20.7 ± 1.42 ng/mL in data set [2] (10 mg/kg oral, 2 h, mean ± SD). For the same compound, the “Plasma concentration of psilocin” value was determined as 31.4 ± 6.34 ng/mL in data set [2] (10 mg/kg oral, 4 h, mean ± SD); 11.5 ± 1.43 ng/mL in data set [2] (10 mg/kg oral, 6 h, mean ± SD); 6.38 ± 2.98 ng/mL in data set [2] (10 mg/kg oral, 8 h, mean ± SD). In addition, the Cmax/Dose of psilocin was 19.7 ± 5.50 kg·ng/mL/mg in data set [2] (1 mg/kg oral, dose of administered compound used, mean ± SD) and 30.6 ± 3.46 kg·ng/mL/mg in data set [2] (10 mg/kg oral, dose of administered compound used, mean ± SD). Besides, the AUC0-tlast/Dose of psilocin in data set [2] (3 mg/kg oral, dose of administered compound used, mean ± SD) amounted to 20.3 ± 2.78 kg·ng·h/mL/mg. In addition, the “time parent compound resides in plasma post-dosing” value in data set [2] (10 mg/kg oral) was “up to 4 hours”. In addition, the “psilocin levels / exposure compared with E(VI)-treated mice” value in data set [2] (oral dosing, Tables 16 and 17) was “higher psilocin levels”. Besides, the “Head Twitch Response (HTR)” value on 5-HT2A receptor was “elicit head twitching”.

Turning to `CN(C)CCc1c[nH]c2cccc(OC(=O)SCc3ccccc3)c12` [E(VI)], on 5-HT1A receptor, the “5-HT1A receptor modulation (change in % cAMP)” value is on record as “mild receptor modulation at higher ligand concentrations”. Also, the “Plasma concentration of E(VI)” value was 3.20 ng/mL and 59.0 ng/mL and 11.1 ng/mL in data set [2] (5 min, individual mice, concentrations not considered accurate); 24.4 ± 30.2 ng/mL in data set [2] (5 min, mean ± SD, concentrations not considered accurate); 72.1 ng/mL and 110 ng/mL and 7.79 ng/mL in data set [2] (0.25 h, individual mice, concentrations not considered accurate); 63.3 ± 51.7 ng/mL in data set [2] (0.25 h, mean ± SD, concentrations not considered accurate); 13.1 ng/mL and 9.29 ng/mL and 1.03 ng/mL in data set [2] (0.5 h, individual mice, concentrations not considered accurate); 7.81 ± 6.17 ng/mL in data set [2] (0.5 h, mean ± SD, concentrations not considered accurate). The “Plasma concentration of E(VI)” value in data set [2] (1 h, individual mice, concentrations not considered accurate) was 3.14 ng/mL and 5.84 ng/mL and No Peak; in data set [2] (1 h, mean, concentrations not considered accurate) it was 4.49 ng/mL; in data set [2] (2 h, individual mice, values below LLOQ 1 ng/mL included), 0.776 ng/mL and 0.594 ng/mL and No Peak; in data set [2] (2 h, mean, concentrations not considered accurate) it was 0.685 ng/mL; in data set [2] (4 h, individual mice, BLQ = below 1 ng/mL), “BLQ (2×) and No Peak”; in data set [2] (6 h, individual mice, BLQ = below 1 ng/mL) it was “No Peak (2×) and BLQ”. For the same compound, the “Plasma concentration of E(VI)” value in data set [2] (8 h, individual mice) was “No Peak”. Moreover, the “AUC0-tlast/Dose of E(VI)” value in data set [2] (individual mice) is 20.4 kg·ng·h/mL/mg and 35.2 kg·ng·h/mL/mg and 3.40 kg·ng·h/mL/mg; in data set [2] (mean ± SD), 19.7 ± 15.9 kg·ng·h/mL/mg. Also, the “detection of parent compound in plasma” value is recorded as “neither B(II) nor E(VI) were detected in plasma” in data set [2] (1 mg/kg oral) and “did not yield any detectable levels of E(VI); also recorded: never detected at any timepoint” in data set [2] (setting [4]). In addition, the “Plasma concentration of psilocin” value was “BLQ” in data set [2] (1 mg/kg oral, 8 h, individual mice, BLQ = below 0.2 ng/mL); “No Peak (2×) and BLQ” in data set [2] (setting [3]); “BLQ” in data set [2] (10 mg/kg oral, 24 h, individual mice, BLQ = below 0.2 ng/mL). Besides, the IC50 at MAO-A and at AVPR1A was above 10 µM throughout. Further, the “Head Twitch Response (HTR)” value at 5-HT2A receptor is recorded as “Elevated incidences of HTR; also recorded: elicit head twitching”. On 5-HT2A receptor (side-by-side (FIG. 4F)), the “HTR of E(VI) compared to B(II)” value was “elevated response”.

`CN(C)CCc1c[nH]c2cccc(O)c12` [psilocin]: at 5-HT1A receptor, the “5-HT1A receptor modulation (change in % cAMP)” value is “reduction in cAMP levels”.

`CN(C)CCc1c[nH]c2cccc(OP(=O)(O)O)c12` [psilocybin]: the stability result in data set [1] (assay buffer (enzyme-free control)) is listed as “stability of psilocybin was confirmed in assay buffer”. Besides, the “stability and conversion to psilocin” value in data set [1] (liver fractions (HLM, HLS9)) is reported as “stable in liver fractions with no conversion to psilocin”. The “Plasma concentration of psilocybin” value in data set [2] (0.5 h, individual mice, No Peak = no detectable compound by LC-MS) is “No Peak and 2.35 ng/mL and 6.21 ng/mL”; in data set [2] (0.5 h, mean), 4.28 (n = 2) ng/mL; in data set [2] (1 h, individual mice, No Peak = no detectable compound by LC-MS) it was “No Peak (2×) and 1.21 ng/mL”; in data set [2] (1 h, mean), 1.21 (n = 1) ng/mL; in data set [2] (2 h, individual mice, No Peak = no detectable compound by LC-MS), “No Peak”; in data set [2] (4 h, individual mice, No Peak = no detectable compound by LC-MS), “No Peak”. The “Plasma concentration of psilocybin” value was “No Peak” in data set [2] (6 h, individual mice, No Peak = no detectable compound by LC-MS); “No Peak (2×) and 2.54 ng/mL” in data set [2] (8 h, individual mice, No Peak = no detectable compound by LC-MS, bolded value considered an outlier). The “Plasma concentration of psilocin” value in data set [2] (1.56 mg/kg oral, 24 h, individual mice, BLQ = below 0.2 ng/mL) was “BLQ”; in data set [2] (setting [3]), “BLQ”. Besides, the “detection of parent compound in plasma” value in data set [2] (setting [4]) is “not detectable in orally administered animals at any dose”.

As to `NCCc1c[nH]c2ccc(O)cc12` [serotonin], the “5-HT1A receptor modulation (change in % cAMP)” value at 5-HT1A receptor is recorded as “reduction in cAMP levels”.

With `N[C@@H](Cc1c[nH]c2ccccc12)C(=O)O` [tryptophan], on 5-HT1A receptor, the “5-HT1A receptor modulation (change in % cAMP)” value was “no reduction in cellular cAMP levels”.
